Source: patent USRE47141E1, “Methods of treating fibrosis, cancer and vascular injuries” (EWHA University—Industry Collaboration Foundation, priority 2010, dated 2018)

Assays:
ALK4 = ALK4 (Homo sapiens (Human), UniProt P36896); experiment: Cell-free assay for inhibition of ALK4 kinase phosphorylation; type: biochemical
Description: ALK5 protein was expressed in Sf9 insect cells as human recombinant GST-fusion protein using the baculovirus expression system. Expressed protein was purified by affinity chromatography using GSH-agarose (Sigma-Aldrich). Kinase assay was performed in 96-well FlashPlates™ from Perkin Elmer (Boston, Mass., USA) in a 50 μL reaction volume. The reaction cocktail was pipetted in four steps in the following order: 20 μL of assay buffer (standard buffer), 5 μL of ATP solution in H2O, 5 μL of each test compounds of formula (I) in 10% DMSO, 10 μL of GSK3 (14-27) (200 ng)/10 μL of ALK5 solution (1 ng) (premixed). The reaction cocktail contained 60 mM HEPES-NaOH, pH 7.5, 3 mM MgCl2, 3 mM MnCl2, […], 1.2 mM DTT, 50 μg/mL PEG20000, 1 μM [γ-^33P]-ATP (approximately 2.5×10^5 cpm per well), 200 ng/10 μL GSK3 (14-27), and 1 ng/10 μL ALK5. The reaction cocktail was incubated at 30° C. for 60 min. […] Incorporation of ^33Pi (counting of “cpm”) was determined with a microplate scintillation counter (Microbeta, Wallac).
Inhibition of the ALK4 kinase phosphorylation by test compounds of formula (I) can be determined in a similar manner to that described above for ALK5 inhibition except that GST-tagged ALK4 (Invitrogen Corporation) and RBER-CHKtide are used in place of the GST-tagged ALK5 and GSK3 (14-27).

[1] = system: TGF-β1-induced Smad2/3 nuclear translocation in MCF10A cells; experiment: Immunofluorescence assay; type: cell-based; details: TGF-β1 2 ng/mL, 1 μM, 2 h
Description: MCF10A cells were plated on the cover glass in 6-well plate at 2×10^5 cells/well. After 12 h, when cells were attached, 10% FBS medium was changed to 0.5% FBS medium. […] Then, cells were fixed with 4% formaldehyde solution for 30 min at room temperature and quenched with quenching solution (50 mM NH4Cl in PBS) for 15 min. After being washed three times with PBS, cells were incubated with blocking/permeabilization solution (1% BSA and 0.1% Triton X-100 in PBS) for 1 h at room temperature and incubated with anti-Smad2/3 antibody (BD Biosciences, Franklin Lakes, N.J., USA) overnight at 4° C. Fluorescence was visualized by Cy3-conjugated goat anti-mouse IgG (Jackson ImmunoResearch Laboratories, Bar Harbor, Me., USA). Nuclei of the same cells were stained with DAPI solution. Cells were analyzed using the LSM 510 META laser confocal microscopy system (Carl Zeiss, Germany).

4T1 cells = experiment: Cell growth study (SRB assay), 4T1; type: cell-based; details: 0.2% serum medium, four days
Description: Either 4T1 cells or MCF10A cells were seeded in 96-well plate at 5×10^3 cells per well. […] After incubation for four days, cell viability was determined by SRB assay.

[2] = system: bile duct-ligated (BDL) rats; experiment: Anti-fibrotic effect on bile duct-ligated liver fibrosis model; type: in vivo; details: for Body weight / Organ weight Liver / Organ weight Liver/Body / Organ weight Spleen / Organ weight Spleen/Body: BDL rats, mean ± S.E.
[3] = system: bleomycin (BLM)-treated mice; experiment: Anti-fibrotic effect on bleomycin-induced lung fibrosis model; type: in vivo
[4] = 5 mg/kg orally three times per week for four weeks
[5] = 10 mg/kg orally three times per week for four weeks
[6] = 20 mg/kg orally three times per week for four weeks
[7] = orally three times per week for four weeks, Example 2 5, 10, 20 mg/kg, Example 3 21.8, 43.6 mg/kg
[8] = orally three times per week for four weeks, Western blot
[9] = 5, 10, or 20 mg/kg orally five times per week for two weeks starting from day 7, Western blot

Chain of ALK4 (P36896 24-505): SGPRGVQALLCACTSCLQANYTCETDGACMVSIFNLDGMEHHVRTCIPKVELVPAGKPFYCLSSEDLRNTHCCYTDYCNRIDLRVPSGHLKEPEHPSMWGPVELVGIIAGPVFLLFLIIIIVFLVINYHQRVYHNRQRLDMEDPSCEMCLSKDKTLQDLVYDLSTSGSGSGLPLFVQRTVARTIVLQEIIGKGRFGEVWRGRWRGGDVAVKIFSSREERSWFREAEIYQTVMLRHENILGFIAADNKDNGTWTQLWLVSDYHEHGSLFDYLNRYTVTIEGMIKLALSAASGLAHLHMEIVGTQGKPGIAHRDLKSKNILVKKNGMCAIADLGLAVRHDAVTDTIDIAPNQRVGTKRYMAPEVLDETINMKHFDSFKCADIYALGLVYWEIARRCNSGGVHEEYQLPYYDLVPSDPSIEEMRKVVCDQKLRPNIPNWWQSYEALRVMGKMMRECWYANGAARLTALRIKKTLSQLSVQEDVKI

## Cc1cccc(-c2[nH]c(CNc3ccccc3F)nc2-c2ccc3ncnn3c2)n1 [Example 2, N-((4-([1,2,4]triazolo[1,5-a]pyridin-6-yl)-5-(6-methylpyridin-2-yl)-1H-imidazol-2-yl)methyl)-2-fluoroaniline]
ALK4
  IC50: 0.0173 µM
[1]
  TGF-β1-induced Smad2/3 nuclear translocation: suppressed
4T1 cells
  4T1 cell growth: no effect
[2]; [4]
  Body weight: 324 ± 7.3 g
  Organ weight Liver: 17.5 ± 1.82 g
  Organ weight Liver/Body: 5.46 ± 0.62%
  Organ weight Spleen: 2.00 ± 0.28 g
  Organ weight Spleen/Body: 0.63 ± 0.09 %
[2]; [5]
  Body weight: 312 ± 10.4 g
  Organ weight Liver: 15.8 ± 1.88 g
  Organ weight Liver/Body: 5.08 ± 0.60%
  Organ weight Spleen: 1.57 ± 0.12 g
  Organ weight Spleen/Body: 0.51 ± 0.05 %
[2]; [6]
  Body weight: 312 ± 8.4 g
  Organ weight Liver: 15.2 ± 1.80 g
  Organ weight Liver/Body: 4.88 ± 0.63%
  Organ weight Spleen: 1.50 ± 0.16 g
  Organ weight Spleen/Body: 0.48 ± 0.05 %
[2]; liver, H&E staining
  BDL-induced histological change: greatly abolished
[2]; [7]
  body weight loss in BDL rats: recovered
  organ (liver and spleen) weight in BDL rats: decreased
  serum ALT in BDL rats: improved
  serum AST in BDL rats: improved
[2]; [8]
  fibronectin in BDL rat liver: suppressed
  α-SMA in BDL rat liver: suppressed
[3]; [9]
  fibronectin in BLM-induced fibrotic lung: suppressed
  α-SMA in BLM-induced fibrotic lung: suppressed
[3]; all dose levels tested (5, 10, 20 mg/kg orally), lung, H&E staining
  BLM-induced histological changes: greatly reduced
